# Measurements published in paper PMC10184313, “Inhibition of Thiamine Diphosphate-Dependent Enzymes by Triazole-Based Thiamine Analogues” (ACS Medicinal Chemistry Letters, 2023).
# Where two headings read alike, the source gives them in different places.
# Key:
# Assay type in all cases: biochemical
# S. cerevisiae PDC = biological target: T1, S. cerevisiae PDC (Saccharomyces cerevisiae, UniProt P06169); experiment: S. cerevisiae PDC inhibitory activity assay (DCPIP reduction); settings: compounds insufficiently soluble were excluded; for inhibition at 1500 µM: read-out: Inhibition (%) Yeast PDC
# T1 construct: purchased Sigma
# T1 sequence (P06169 2-563 limits assumed): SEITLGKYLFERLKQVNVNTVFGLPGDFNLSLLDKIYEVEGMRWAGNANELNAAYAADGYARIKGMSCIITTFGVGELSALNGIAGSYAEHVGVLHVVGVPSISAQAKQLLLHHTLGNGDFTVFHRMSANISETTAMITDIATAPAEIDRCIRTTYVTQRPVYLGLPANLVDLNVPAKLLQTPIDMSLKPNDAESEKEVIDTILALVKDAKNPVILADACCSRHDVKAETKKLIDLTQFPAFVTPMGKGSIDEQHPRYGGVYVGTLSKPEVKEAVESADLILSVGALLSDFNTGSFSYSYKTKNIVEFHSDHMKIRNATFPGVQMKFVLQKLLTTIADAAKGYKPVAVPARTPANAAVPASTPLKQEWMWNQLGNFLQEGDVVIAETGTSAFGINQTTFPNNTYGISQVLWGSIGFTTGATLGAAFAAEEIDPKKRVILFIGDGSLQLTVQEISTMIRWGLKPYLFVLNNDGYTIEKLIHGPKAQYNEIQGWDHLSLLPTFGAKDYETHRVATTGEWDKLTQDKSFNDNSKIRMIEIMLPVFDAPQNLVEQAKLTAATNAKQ
# Protocol: S. cerevisiae PDC inhibitory activity assay. S. cerevisiae PDC was purchased from Sigma. Its activity was determined by monitoring DCPIP reduction at 600 nm using a microplate reader (CLARIOstar) and conducted as described 1,2 with some modifications. The percentage inhibition of compounds was assayed at a final concentration of 1500 µM. The reaction buffer (50 mM KH 2PO4 and 1 mM MgCl 2, pH 7) contained 300 µM ThDP (or 750 µM in the competition assay), 0.27 mM DCPIP, and 0.15 mg/ml S. cerevisiae PDC. The reaction mixture was preincubated at 37 °C for 60 min, then reaction was initiated by adding pyruvate to a final concentration of 70 mM. Specific activity was calculated using the molar extinction coefficient of DCPIP, 21 mM -1 cm -1.3 […]
# A. viridans PO = biological target: T2, A. viridans PO (Aerococcus viridans, UniProt A9X9K8); experiment: A. viridans PO inhibitory activity assay (quinoneimine dye)
# T2 sequence (A9X9K8 1-592): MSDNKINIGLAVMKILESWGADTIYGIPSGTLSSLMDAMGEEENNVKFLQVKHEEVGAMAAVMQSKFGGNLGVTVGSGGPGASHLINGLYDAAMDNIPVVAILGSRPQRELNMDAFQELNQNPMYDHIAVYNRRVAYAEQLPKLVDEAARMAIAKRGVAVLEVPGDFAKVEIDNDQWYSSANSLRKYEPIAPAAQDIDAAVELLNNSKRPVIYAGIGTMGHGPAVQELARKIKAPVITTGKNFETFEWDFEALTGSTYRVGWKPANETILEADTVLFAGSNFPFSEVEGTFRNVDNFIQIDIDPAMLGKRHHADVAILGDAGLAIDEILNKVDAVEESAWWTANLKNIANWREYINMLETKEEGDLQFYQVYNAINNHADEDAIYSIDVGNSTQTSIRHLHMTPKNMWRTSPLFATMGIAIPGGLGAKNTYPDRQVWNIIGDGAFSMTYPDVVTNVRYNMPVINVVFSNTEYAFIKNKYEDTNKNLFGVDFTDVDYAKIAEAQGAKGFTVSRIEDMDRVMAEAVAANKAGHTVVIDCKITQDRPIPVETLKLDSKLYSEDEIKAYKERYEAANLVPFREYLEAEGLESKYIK
# Protocol: A. viridans PO inhibitory activity assay. A. viridans PO and horseradish peroxidase were purchased from Sigma. A. viridans PO activity was determined by monitoring appearance of quinoneimine dye at 550 nm using a microplate reader (CLARIOstar) and conducted as described 1 with some modifications.
# The percentage inhibition of compounds against A. viridans PO was assayed at a final concentration of 250 µM. The reaction buffer (50 mM KH 2PO4 and 10 mM MgCl 2, pH 5.9) contained 50 µM ThDP (or 125 µM in the competition assay), 10 µM flavin adenine dinucleotide (FAD), 0.15% 4-Aminoantipyrine, 0.3% N-Ethyl-N-(2-hydroxy-3-sulfopropyl)-m-toluidine (EHSPT), 50 µg/mL horseradish peroxidase and 0.35 U/mL A. viridans PO. The reaction mixture was preincubated at 37 °C for 30 min, then reaction was initiated by adding pyruvate to a final concentration of 50 mM. To determine the IC 50, inhibitor concentration was varied (2-1000 µM) with ThDP concentration at 50 µM. 1 unit of PO activity is defined as 1 μmol of hydrogen peroxide produced per minute. The enzyme IC 50 values were calculated as described for the PDHc E1 assay. […]
# porcine PDHc E1 = biological target: T3, porcine PDHc E1 (Sus scrofa, UniProt P29804); experiment: PDHc E1 inhibitory activity assay (DCPIP reduction); settings: for L.E. (ligand efficiency) PDHc E1: binding energy in kcal mol^–1 derived from the KI value per heavy atom
# T3 sequence (P29804 31-390): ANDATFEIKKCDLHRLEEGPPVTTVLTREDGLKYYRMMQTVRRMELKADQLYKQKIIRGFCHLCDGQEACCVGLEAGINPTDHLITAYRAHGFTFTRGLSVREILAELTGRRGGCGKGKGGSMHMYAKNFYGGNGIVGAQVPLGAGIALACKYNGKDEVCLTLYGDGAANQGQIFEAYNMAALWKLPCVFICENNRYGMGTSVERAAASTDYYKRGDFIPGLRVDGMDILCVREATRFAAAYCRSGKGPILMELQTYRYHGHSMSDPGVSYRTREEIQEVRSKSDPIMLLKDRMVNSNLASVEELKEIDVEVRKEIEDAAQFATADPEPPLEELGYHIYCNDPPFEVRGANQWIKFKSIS
# Protocol: Enzyme assays – Methods and Results S1
# Ligand efficiencies – Calculations S3 […]
# Enzyme assays (Methods and Results)
# PDHc E1 inhibitory activity assay. Porcine PDHc E1 was purchased from Sigma. Its activity was […]
# determined by monitoring 2,6-dichlorophenolindophenol (DCPIP) reduction at 600 nm using a […]
# microplate reader (CLARIOstar) and conducted as described 1,2 with some modifications. The percentage inhibition of compounds against porcine PDHc E1 was assayed at a final concentration of 250 µM. The reaction buffer (50 mM KH 2PO4 and 1 mM MgCl 2, pH 7) contained 50 µM ThDP (or 125 µM in the competition assay), 0.25 mM DCPIP, and 2 mg/ml porcine PDHc E1. The reaction mixture […]
# was preincubated at 37 °C for 30 min, then the reaction was initiated by adding pyruvate to a final […]
# concentration of 50 mM. To determine the half-maximal inhibitory concentration (IC 50 ), ThDP […]
# concentration was lowered to 10 µM, and inhibitor concentration was varied (0.4-200 µM). Specific […]
# activity was calculated using the molar extinction coefficient of DCPIP, 21 mM -1 cm-1.3 The enzyme […]
# IC50 values were calculated from non-linear regression curve fitting using GraphPad Prism.
# [1] = [Compound] = 1.5 mM, [ThDP] = 0.3 mM
# [2] = increased ThDP: [Compound] = 1500 μM, [ThDP] = 750 μM
# [3] = [Compound] = 250 μM, [ThDP] = 50 μM
# [4] = increased ThDP: [Compound] = 250 μM, [ThDP] = 125 μM
SMILES,Inhibition (%) Yeast PDC (S. cerevisiae PDC; [1]),Inhibition (%) Yeast PDC (S. cerevisiae PDC; [2]),Inhibition (%) PO (A. viridans PO; [3]) [%],Inhibition (%) PO (A. viridans PO; [4]) [%],Inhibition (%) PDHc E1 (porcine PDHc E1; [3]) [%],Inhibition (%) PDHc E1 (porcine PDHc E1; [4]) [%],inhibition at 1500 µM (S. cerevisiae PDC; [1]) [%],Ki (porcine PDHc E1) [nM],L.E. (ligand efficiency) PDHc E1 (porcine PDHc E1),inhibition at 1500 µM (S. cerevisiae PDC; [2]) [%],IC50 (A. viridans PO; [ThDP] 50 μM) [µM],Ki (A. viridans PO; determined according to the KM for ThDP) [µM]
COc1ccc(-c2cn(CCc3cn(Cc4cnc(C)nc4N)nn3)nn2)cc1 [Compound 17a],Insoluble,Insoluble,< 20,<20,46 ± 4,<20,,,,,,
Cc1ncc(Cn2cc(CCn3cc(-c4ccc(F)cc4)nn3)nn2)c(N)n1 [Compound 16a],Insoluble,Insoluble,< 20,<20,42 ± 2,<20,,,,,,
Cc1ncc(Cn2cc(CCNC(=O)c3cccc(C#N)c3)nn2)c(N)n1 [Compound 20a],,,< 20,,46 ± 4,,< 20,,,,,
Cc1ncc(Cn2cc(CCNS(=O)(=O)C(F)(F)F)nn2)c(N)n1 [Compound 18a],,,< 20,,50 ± 2,,< 20,,,,,
COc1cccc(C(=O)NCCc2cn(Cc3cnc(C)nc3N)nn2)c1 [Compound 21a],,,< 20,,67 ± 4,,48 ± 2,,,,,
Cc1ncc(Cn2cc(CCOC(=O)c3cccc(C#N)c3)nn2)c(N)n1 [Compound 14a],Insoluble,,< 20,,71 ± 4,,,,,,,
Cc1ncc(Cn2cc(CCCO)nn2)c(N)n1 [Compound 9b],,,< 20,,52 ± 3,,35 ± 2,,,,,
COc1ccc(-c2cn(CCCCc3cn(Cc4cnc(C)nc4N)nn3)nn2)cc1 [Compound 17c],Insoluble,Insoluble,< 20,<20,> 90,82 ± 4,,30,0.34,,,
Cc1ncc(Cn2cc(CCCCC(=O)NO)nn2)c(N)n1 [Compound 24c],,,42 ± 5,24 ± 4,> 90,73 ± 4,63 ± 4,,0.48,37 ± 4,232 ± 23,23.2
Cc1ncc(Cn2cc(CCC(=O)NO)nn2)c(N)n1 [Compound 24a],,,< 20,,77 ± 3,,41 ± 3,,,,,
Cc1ncc(Cn2cc(CCCCn3cc(-c4ccc(F)cc4)nn3)nn2)c(N)n1 [Compound 16c],Insoluble,Insoluble,< 20,<20,> 90,79 ± 2,,,,,,
COc1ccccc1C(=O)NCCc1cn(Cc2cnc(C)nc2N)nn1 [Compound 22a],,,< 20,,83 ± 4,,61 ± 4,,,,,
